Among the data in a melting point compilation (Tetko et al.) are melting point values, retold here.

For orientation: melting point means the temperature of the solid-liquid transition.

Structures are written as SMILES.

As to `Cc1ccc(CNC(N)=O)cc1`, the melting point is 184 to 186 °C.
Molecule `O=C(CCl)NNC(=O)C1CC1` came in with a melting point of 185 to 187 °C.
Consider `NCCS(=O)(=O)N1CCSCC1`, for which the melting point lay in the range of 59 to 61 °C.
Then `Cc1n[nH]c(C)c1CO`, with 178 to 180 °C.
As to `COC(=O)c1ccc(F)cc1N`, the melting point lay in the range of 62 to 64 °C.
Take `CCOC(=O)C1=NN(CC)C(=O)C1`: the melting point lay in the range of 135 to 137 °C.
Then `CC(C)(C)OC(=O)NC(CC#N)c1ccccc1` (configuration not stated), with 104 to 106 °C.
As to `CC(C)(C)OC(=O)Nc1cccc(C(N)=NO)c1`, the melting point was 168 to 170 °C.
`Cc1cc(N)ccc1S(C)(=O)=O` showed a melting point of 144 to 146 °C.
`O=C(O)c1cc(-c2c(F)cccc2F)no1` had a melting point of 181 to 183 °C.
In turn, `Nc1noc(C2CC2)n1` returned a melting point of 84 to 86 °C.
Then `Cc1ccc(C(=O)C2CC2)cc1`, with 47 to 49 °C; and `Cc1c(NC(=O)CSCC(=O)O)c(=O)n(-c2ccccc2)n1C`, with 180 to 182 °C; and `Cc1ccccc1-n1c(C)cc(C(=O)CCl)c1C`, with 65 to 67 °C.
Then `O=C(O)c1cn(-c2ccccc2)nc1-c1ccc(Cl)cc1`, with 246 to 248 °C; and `O=C(O)c1c[nH]c(-c2cccc([N+](=O)[O-])c2)n1`, with 184 to 186 °C; and `CC(C)n1ncc2c(C(=O)O)cc(C3CC3)nc21`, with 144 to 146 °C.
The molecule `COc1cc2ncn(CCCC(=O)O)c(=O)c2cc1OC` showed a melting point of 198 to 200 °C.
`Cc1nnc(-c2cccc(N)c2)o1` registered a melting point of 136 to 138 °C.
On to `COCCCNc1c(N)n(Cc2ccccc2)c(=O)[nH]c1=O`, for which the melting point was in the range of 148 to 150 °C.
The molecule `O=c1[nH]c2ccc(S(=O)(=O)Cl)cc2[nH]1` returned a melting point of 210 to 212 °C.
For `CCc1sc(C(=O)O)cc1Br`, the melting point was in the range of 155 to 157 °C.
In turn, `N#Cc1c(F)c(N)c(F)c(F)c1C#N` had a melting point of 159 to 161 °C.
As for `O=C(CCl)c1ccc2c(c1)-c1ccccc1C2`, the melting point lay within 133 to 135 °C.
In the case of `COc1ccccc1NC(=O)c1ccc(N)cc1`, the melting point lay within 162 to 164 °C.
`Cc1cccc([N+](=O)[O-])c1I` displayed a melting point of 67 to 69 °C.
Molecule `O=c1[nH]c(Cl)cc2ccccc12` showed a melting point of 214 to 216 °C.
Molecule `COc1ccc(S(=O)(=O)NCC(=O)O)cc1` had a melting point of 131 to 133 °C.
As to `CC(C)(C)OC(=O)N1CCC(OCC(=O)O)CC1`, the melting point was in the range of 102 to 104 °C.
As to `COc1cc(CO)c([N+](=O)[O-])cc1OCC(F)F`, the melting point lay in the range of 107 to 109 °C.
Molecule `O=C(Cc1ccc(Cl)cc1)c1ccccn1` had a melting point of 49 to 51 °C.
Then `Cn1ccnc1C(=O)c1ccco1`, with 34 to 36 °C.
`O=C(O)C=Cc1csc(Br)c1` gave a melting point of 187 to 189 °C.
Molecule `CC(O)(C(=O)O)c1cccc2ccccc12` (configuration not stated) displayed a melting point of 145 to 147 °C.
`CCOC(=O)C(C)NC(=O)c1ccc(N)cc1` (configuration not stated): the melting point fell in the range of 127 to 129 °C.
`NC(=O)c1ccc(N=C=S)cc1` had a melting point of 189 to 191 °C.
`CCCCS(=O)(=O)Nc1ccc(F)c(N)c1` showed a melting point of 71 to 73 °C.
For the molecule `O=C(O)COc1cccc(N2CCCC2=O)c1`, the melting point is 169 to 171 °C.
The molecule `CS(=O)(=O)c1ccc(N)cc1F` displayed a melting point of 116 to 118 °C.
`Nc1ccc(OC(F)F)c2ncccc12` yielded a melting point of 119 to 121 °C.
On to `O=C(O)c1nnn(-c2ccc(Br)cc2)c1C1CC1`, for which the melting point was 176 to 178 °C.
`Nc1ccc(S(=O)(=O)N2CCOCC2)cc1N` had a melting point of 169 to 171 °C.
`CCN(CC)S(=O)(=O)c1ccc(N2CCCCC2)c(N)c1`: the melting point lay within 75 to 77 °C.
Then `CCn1c(CCC(=O)O)nc2cc(S(=O)(=O)N(C)C)ccc21`, with 186 to 188 °C; and `CNC(=O)c1cccc(O)c1`, with 108 to 110 °C.
In the case of `O=C(O)CCCNc1ccccc1[N+](=O)[O-]`, the melting point is 115 to 119 °C.
Regarding `O=C(O)Cc1ccc(O)cc1Cl`, the melting point was 171 to 173 °C.
Molecule `Cc1cc(C=O)c(C)n1C(C)C` registered a melting point of 45 to 47 °C.
For the molecule `CCC(O)(C(N)=O)c1ccc(Br)cc1` (configuration not stated), the melting point was 146 to 148 °C.
`CC(=CC(=O)O)c1ccc(C(F)(F)F)cc1` came in with a melting point of 122 to 124 °C.
Turning to `CC(C)C(=O)Nc1ccc(Cl)c(C(=O)O)c1`, the melting point lay in the range of 229 to 231 °C.
As to `CC(O)c1cn(CC(=O)O)nn1` (configuration not stated), the melting point lay in the range of 134 to 136 °C.
As to `Cn1nc(Br)c2c(Cl)ncnc21`, the melting point lay within 115 to 117 °C.
Regarding `CC1(c2ccc(C(F)(F)F)cc2)NC(=O)NC1=O` (configuration not stated), the melting point was 169 to 171 °C.
In the case of `CCCOc1ccc(C(=O)O)cc1OC`, the melting point lay within 182 to 184 °C.
For `CCOc1cccc(CC(=O)O)c1`, the melting point was 89 to 91 °C.
`O=C(O)CNCC1CC1` had a melting point of 222 to 224 °C.
In the case of `Cc1cn(-c2ncccc2F)nc1N`, the melting point was 131 to 133 °C.
As for `CC(O)c1ccccc1NC(=O)c1ccccc1` (configuration not stated), the melting point fell in the range of 111 to 113 °C.
Molecule `Nc1nc2cc(Br)ccc2n1Cc1ccccc1` had a melting point of 213 to 215 °C.
On to `Nc1ccc(CCC(=O)O)cn1`, for which the melting point is 199 to 201 °C.
`COCCNc1nnc(S)s1`: the melting point lay within 120 to 122 °C.
`O=C(O)C1CC(O)CN1C(=O)COc1ccccc1` (configuration not stated) had a melting point of 157 to 159 °C.
For the molecule `O=C1C(Br)CCCN1c1ccccc1` (configuration not stated), the melting point lay within 80 to 82 °C.
Regarding `CC(N)=NO`, the melting point was in the range of 118 to 120 °C.
For `CC(=Cc1ccc(Br)o1)[N+](=O)[O-]`, the melting point was 89 to 91 °C.
As for `Cc1ccc(N2CCCNC(=O)C2)cc1`, the melting point was 181 to 183 °C.
For `Cc1ccc(NCCC(=O)O)cc1Cl`, the melting point lay within 80 to 82 °C.
`CC(=O)c1sc2nc(CCl)[nH]c(=O)c2c1C` showed a melting point of 247 to 249 °C.
Then `Nc1ccc(-c2nc3ccccc3s2)cc1`, with 149 to 151 °C; and `O=C(O)c1cc(F)cc(Cl)c1O`, with 210 to 212 °C; and `O=C(O)C1CCCCN1C(=O)c1ccccc1` (configuration not stated), with 128 to 130 °C.
In the case of `CCC(C)NS(=O)(=O)c1cccc(C(=O)O)c1` (configuration not stated), the melting point fell in the range of 155 to 157 °C.
Molecule `COc1ccccc1-c1csc(=O)[nH]1` returned a melting point of 127 to 129 °C.
With `Cc1ccc(-c2nnc(N)o2)cc1F`, the melting point fell in the range of 264 to 266 °C.
On to `Nc1ccnn1C1CCS(=O)(=O)C1` (configuration not stated), for which the melting point is 169 to 171 °C.
As for `O=C(O)c1cccn2c(I)cnc12`, the melting point lay within 237 to 239 °C.
Molecule `O=C(O)CSCC(=O)Nc1ccc(F)cc1` displayed a melting point of 125 to 127 °C.
For `CCCS(=O)(=O)Nc1cc(N)c(F)cc1F`, the melting point lay in the range of 95 to 97 °C.
Then `NS(=O)(=O)CC1CC1`, with 45 to 47 °C.
Molecule `Cc1c(CCl)cc(C(=O)O)cc1CCl` registered a melting point of 157 to 159 °C.
The molecule `COc1ccc(S(=O)(=O)N2CCC(=O)CC2)cc1` had a melting point of 126 to 128 °C.
For `O=C(O)c1c[nH]c(=O)c(Br)c1`, the melting point is 307 to 309 °C.
The molecule `CCn1c(NN)nc2ccccc2c1=O` showed a melting point of 159 to 161 °C.
Then `NS(=O)(=O)c1ccc(C(=O)CBr)cc1`, with 149 to 151 °C; and `Nc1ccc(Br)c(I)c1`, with 74 to 76 °C.
Consider `COC(=O)C(=O)CC(=O)c1ccc(C)cc1C`, for which the melting point fell in the range of 63 to 65 °C.
`Nc1ccc(Br)cc1S(=O)(=O)N1CCOCC1` yielded a melting point of 142 to 144 °C.
`Cn1c(=O)c2nc(SCC(=O)O)[nH]c2n(C)c1=O` displayed a melting point of 259 to 261 °C.
Consider `Cc1nn(C(C)(C)C)c(C)c1C(=O)O`, for which the melting point lay in the range of 158 to 160 °C.
The molecule `Cc1ccc(N(CCC#N)C(=O)CCl)cc1` yielded a melting point of 56 to 58 °C.
The value for `c1ccc(-c2noc(CSc3nnc(-c4ccncc4)o3)n2)cc1` was 134 to 136 °C.
Then `COc1cc(S(=O)(=O)Cl)ccc1Br`, with 65 to 67 °C.
In turn, `O=C(O)CCNC(=O)c1c[nH]c2ccccc12` came in with a melting point of 157 to 159 °C.
`N#Cc1ccc(CS(=O)(=O)NN)cc1` registered a melting point of 142 to 144 °C.
The molecule `NC(=NO)C(c1ccccc1)c1ccccc1` had a melting point of 124 to 126 °C.
Consider `COC(=O)c1cc(S(=O)(=O)Cl)cnc1Cl`, for which the melting point is 48 to 50 °C.
In the case of `CN(c1ccccc1)c1ccc(C(=O)O)cn1`, the melting point was 176 to 178 °C.
Take `O=C(O)CN1C(=O)Cn2c(cc3ccccc32)C1=O`: the melting point lay within 331 to 333 °C.
In the case of `CC(=O)c1ccc(Cl)c(Cl)c1O`, the melting point was in the range of 108 to 110 °C.
Turning to `OC1CCc2ccc(F)cc21` (configuration not stated), the melting point was in the range of 41 to 43 °C.
Turning to `NS(=O)(=O)c1ccc([N+](=O)[O-])cc1[N+](=O)[O-]`, the melting point lay in the range of 149 to 151 °C.
Take `COC(=O)c1ccc(C=O)o1`: the melting point fell in the range of 79 to 81 °C.
The molecule `O=C(O)c1ccc(OCC(=O)C2CC2)cc1` came in with a melting point of 157 to 159 °C.
Turning to `Nc1cccnc1-n1cncn1`, the melting point fell in the range of 110 to 112 °C.
Regarding `COC(=O)COc1ccc(N)c(C)c1`, the melting point was in the range of 104 to 106 °C.
In turn, `CCNS(=O)(=O)c1ccccc1OC` displayed a melting point of 84 to 86 °C.
With `O=C(O)c1cc2ccc(Cl)cc2[nH]1`, the melting point lay within 242 to 244 °C.
In turn, `NC(Cc1ccccc1)C(=O)Nc1ccccc1` (configuration not stated) displayed a melting point of 76 to 78 °C.
Then `Nc1cccc(N2CCN(CCc3ccccc3)CC2)c1`, with 96 to 98 °C; and `COC(=O)c1ccc(F)c(Cl)c1F`, with 47 to 49 °C; and `O=C(CCCl)N1CCOCC1`, with 46 to 48 °C.
With `NC(=O)C1CN(C(=O)CCl)c2ccccc2O1` (configuration not stated), the melting point was 133 to 135 °C.
On to `O=C(CCl)NC(C1CC1)C1CC1`, for which the melting point was 114 to 116 °C.
Then `NC(=S)C1(NC(=O)c2ccccc2)CCCCC1`, with 189 to 191 °C; and `Cc1ccc(-c2nn(-c3ccccc3)cc2/C=C(\C#N)C(=O)O)cc1`, with 295 to 297 °C.
Regarding `O=C(O)Cc1csc(N2CCCC2=O)n1`, the melting point fell in the range of 118 to 120 °C.
Regarding `CC(C)N1CCC(C(=O)O)CC1`, the melting point was 168 to 170 °C.
`COc1ccccc1NC1=NCCCS1` returned a melting point of 83 to 85 °C.
Then `O=C1Nc2ccccc2NC1CO` (configuration not stated), with 140 to 142 °C; and `N#CCC(=O)NCCc1ccccc1`, with 91 to 93 °C; and `CCCCNc1c(N)n(Cc2ccccc2)c(=O)[nH]c1=O`, with 117 to 119 °C.
